The values below come from patent US12577229B2, “Substituted {5-methoxy-6-[(5-methoxypyridin-2-yl)methoxy]pyridin-3-yl} methyl compounds as CSF-1R inhibitors” (Eli Lilly and Company, priority 2020, dated 2026).

The test system of assay [1] is 5xFAD model of Alzheimer's disease. To be noted: cited from earlier work.
Assay [2] concerns P301S mouse tauopathy model. To be noted: cited from earlier work.
A further assay concerns the target T1, human PDGFRβ (Homo sapiens, UniProt P09619).
T1 construct: enzyme fragment for Enzyme Fragment Complementation (β-galactosidase fragment); host or cells: U2OS
The assay can be described thus: DiscoverX PathHunter RTK cell based functional assay, PDGFRβ. To be noted: PDGFRβ U2OS cells, 3 nM PDGF-BB agonist, n=4.

The next assay deals with KIT (Homo sapiens, UniProt P10721). Nature of the assay: biochemical. Here is the method: (§1) DiscoverX® KINOMEscan™ In Vitro Kinase Competition Binding Assay
(§2) Compound activity (% binding) is monitored by measuring the amount of kinase captured in test versus control samples by using a qPCR method that detects the associated DNA label. The binding activity is converted to % inhibition and an IC50 value is determined for CSF-1R fold-selectivity assessment.
(§3) Assays to monitor binding to a 468-kinase panel are conducted at DiscoverX® Corporation (Fremont, CA). Test compound is provided as a 10 mM stock in 100% DMSO and evaluated at […] final concentrations. Kinases are tagged with DNA for qPCR detection. […] The liganded beads are blocked with excess biotin and washed with blocking buffer (Pierce SeaBlock, 1% BSA, 0.05% Tween 20 and 1 mM DTT) to remove unbound ligand and to reduce nonspecific binding. […] Test compound is prepared as a 40×stock in 100% DMSO and directly diluted into the assay. All reactions are performed in polypropylene 384-well plates in a final volume of 0.02 mL. […] The kinase concentration in the eluates is measured by qPCR. […]
(§4) The percent inhibition values, and the 3-point concentration response data are subsequently determined and analyzed with NGR software, and non-standard IC50 values are calculated from the resulting curve fit. […]

Another assay addresses T2, KIT V559D (Homo sapiens, UniProt P10721, V559D).
T2 construct: purchased DiscoverX Corporation (Fremont, CA), contract assay
Nature of the assay: DiscoverX KINOMEscan kinase competition binding assay, KIT V559D. To be noted: 2 μM compound concentration. On the procedure: as §1, §2, §3, §4

A further assay concerns the target T3, KIT L576P (Homo sapiens, UniProt P10721, L576P).
T3 construct: purchased DiscoverX Corporation (Fremont, CA), contract assay
Nature of the assay: DiscoverX KINOMEscan kinase competition binding assay, KIT L576P. To be noted: 2 μM compound concentration. Here is the method:
as §1, §2, §3, §4

Another assay addresses T4, KIT V559D V654A (Homo sapiens, UniProt P10721, V559D/V654A).
T4 construct: purchased DiscoverX Corporation (Fremont, CA), contract assay
Nature of the assay: DiscoverX KINOMEscan kinase competition binding assay, KIT V559D V654A. To be noted: 2 μM compound concentration. Here is the method:
as §1, §2, §3, §4

A further assay has as its target T5, PDGFRB (Homo sapiens, UniProt P09619).
T5 construct: purchased DiscoverX Corporation (Fremont, CA), contract assay
The assay can be described thus: DiscoverX KINOMEscan kinase competition binding assay, PDGFRB. On the procedure:
as §1, §2, §3, §4

The next assay has as its system 468-kinase panel. The assay can be described thus: DiscoverX KINOMEscan kinase competition binding assay, whole panel. Also on record: species or system human. To be noted: of 468 protein kinases, 2 μM compound concentration. Here is the method: as §1, §2
Assays to monitor binding to a 468-kinase panel are conducted at DiscoverX® Corporation (Fremont, CA). […] Kinases are tagged with DNA for qPCR detection. […] The liganded beads are blocked with excess biotin and washed with blocking buffer (Pierce SeaBlock, 1% BSA, 0.05% Tween 20 and 1 mM DTT) to remove unbound ligand and to reduce nonspecific binding. […] Test compound is prepared as a 40×stock in 100% DMSO and directly diluted into the assay. All reactions are performed in polypropylene 384-well plates in a final volume of 0.02 mL. […] The kinase concentration in the eluates is measured by qPCR. The results for primary screen binding interactions are reported as ‘% Ctrl’, where lower numbers indicate stronger hits in the matrix.
Percent of control (% Ctrl) calculation: […]
as §4

T2 sequence (P10721 26-976 V559D): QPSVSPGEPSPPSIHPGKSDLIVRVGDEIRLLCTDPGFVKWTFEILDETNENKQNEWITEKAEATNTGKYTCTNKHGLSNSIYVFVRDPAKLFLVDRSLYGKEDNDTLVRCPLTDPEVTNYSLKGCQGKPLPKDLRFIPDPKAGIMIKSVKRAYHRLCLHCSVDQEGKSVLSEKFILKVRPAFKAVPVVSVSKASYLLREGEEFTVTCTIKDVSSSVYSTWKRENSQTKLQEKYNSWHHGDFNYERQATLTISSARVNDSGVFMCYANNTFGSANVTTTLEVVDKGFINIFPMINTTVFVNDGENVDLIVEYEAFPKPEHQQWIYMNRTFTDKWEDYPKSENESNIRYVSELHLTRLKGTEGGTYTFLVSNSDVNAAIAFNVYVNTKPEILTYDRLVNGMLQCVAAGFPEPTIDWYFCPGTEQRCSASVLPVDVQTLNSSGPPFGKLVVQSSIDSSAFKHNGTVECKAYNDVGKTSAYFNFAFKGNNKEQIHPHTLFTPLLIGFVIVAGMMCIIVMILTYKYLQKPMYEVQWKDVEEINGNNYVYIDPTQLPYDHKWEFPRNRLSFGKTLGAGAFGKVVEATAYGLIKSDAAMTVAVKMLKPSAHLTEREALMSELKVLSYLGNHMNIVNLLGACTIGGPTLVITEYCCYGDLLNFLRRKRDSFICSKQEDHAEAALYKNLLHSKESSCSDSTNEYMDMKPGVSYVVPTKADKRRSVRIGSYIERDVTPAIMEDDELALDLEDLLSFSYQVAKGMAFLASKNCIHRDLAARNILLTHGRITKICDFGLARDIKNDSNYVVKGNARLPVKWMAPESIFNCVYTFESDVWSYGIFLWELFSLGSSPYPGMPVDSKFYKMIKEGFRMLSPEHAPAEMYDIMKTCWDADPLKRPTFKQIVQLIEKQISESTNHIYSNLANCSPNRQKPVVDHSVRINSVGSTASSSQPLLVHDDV
T1 sequence (P09619 33-1106): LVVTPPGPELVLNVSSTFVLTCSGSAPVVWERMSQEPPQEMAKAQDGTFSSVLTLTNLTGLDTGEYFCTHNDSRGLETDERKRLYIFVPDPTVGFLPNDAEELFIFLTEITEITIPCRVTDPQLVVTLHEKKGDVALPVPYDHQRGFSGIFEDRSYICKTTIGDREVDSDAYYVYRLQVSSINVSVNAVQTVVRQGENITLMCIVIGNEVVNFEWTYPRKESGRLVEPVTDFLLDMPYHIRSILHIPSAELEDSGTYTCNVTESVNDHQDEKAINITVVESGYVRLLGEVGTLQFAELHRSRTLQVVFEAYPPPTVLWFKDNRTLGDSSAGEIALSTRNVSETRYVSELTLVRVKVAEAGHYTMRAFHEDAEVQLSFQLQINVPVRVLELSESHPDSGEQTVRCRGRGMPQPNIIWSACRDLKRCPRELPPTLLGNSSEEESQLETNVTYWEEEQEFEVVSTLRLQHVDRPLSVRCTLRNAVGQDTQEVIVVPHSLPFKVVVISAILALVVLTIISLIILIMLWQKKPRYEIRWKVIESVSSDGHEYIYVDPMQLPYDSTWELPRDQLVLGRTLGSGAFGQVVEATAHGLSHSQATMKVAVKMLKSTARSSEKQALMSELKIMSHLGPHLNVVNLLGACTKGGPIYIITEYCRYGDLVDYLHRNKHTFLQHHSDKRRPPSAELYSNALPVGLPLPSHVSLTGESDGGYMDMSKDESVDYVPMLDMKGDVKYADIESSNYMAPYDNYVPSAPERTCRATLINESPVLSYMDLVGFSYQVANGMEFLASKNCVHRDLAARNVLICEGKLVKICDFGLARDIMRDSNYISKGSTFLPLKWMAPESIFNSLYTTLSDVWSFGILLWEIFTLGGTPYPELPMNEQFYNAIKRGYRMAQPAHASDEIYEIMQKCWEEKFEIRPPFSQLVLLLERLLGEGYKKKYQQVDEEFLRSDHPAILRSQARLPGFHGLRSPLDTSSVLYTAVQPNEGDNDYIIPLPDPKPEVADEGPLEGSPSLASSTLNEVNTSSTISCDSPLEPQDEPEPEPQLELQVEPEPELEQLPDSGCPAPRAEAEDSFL
T5 sequence (P09619 33-1106): as above
Sequence of KIT (P10721 26-976): as the sequence (P10721 26-976 V559D) above, with D534V counted along it
T4 sequence (P10721 26-976 V559D/V654A): as the sequence (P10721 26-976 V559D) above, with V629A counted along it
T3 sequence (P10721 26-976 L576P): as the sequence (P10721 26-976 V559D) above, with D534V, L551P counted along it
Description for human PDGFRβ: DiscoverX® PathHunter Receptor Tyrosine Kinase (RTK) Cell Based Functional Assay
For in vitro PDGFRβ (Accession NM_002609, Part No. 93-0493C3) and c-Kit (Accession NM_000222, Part No. 93-0853C3) cellular assays, the test compounds are prepared in DMSO to make up a 10 mM stock solution. The stock solution is serially diluted two-fold in DMSO to obtain a twenty-point curve with final compound concentrations ranging from 20.0 μM to 0.019 nM.
DiscoverX® PathHunter Receptor Tyrosine Kinase (RTK) cell based functional assays are utilized to profile compounds using Enzyme Fragment Complementation technology with human PDGFRβ U2OS cells and human c-Kit U2OS cells. Cells are continuously cultured from cell passage 5 up to cell passage 30 in AssayComplete™ Cell Culture Kit-103 (DiscoverX®, 92-3103G) media containing 500 μg/mL G418 and 250 μg/mL hygromycin. PDGFRβ or c-Kit cells (27 μL) in media (DiscoverX®, 93-0563R16B) are seeded at 1.5×10^4 cells/well into all wells of a Corning 384 poly-d-lysine coated white plate. The cell plates are then incubated overnight at 37° C., 5.0% CO2. Compound serial dilutions are then added to rows A-P, columns 3-22. DMSO and inhibitor controls are added to rows A-P, columns 1-2 and 23-24, respectively. Cell plates with compound or controls are incubated for 1 hour at 37° C., 5.0% CO2. […] After 1 hour, cell plates are read on a chemiluminescence capable plate reader. […]

As to `FC(F)(F)c1ccc(CNc2ccc(Cc3c[nH]c4ncc(Cl)cc34)cn2)cn1` [PLX3397], in [1], the “effect on amyloid pathology” value is “Reductions in intraneuronal amyloid, neuritic plaque formation and pre-fibrillar and fibrillar oligomers”; the “effect on cognitive function” value is reported as “improvements in cognitive function”.

As for `CC1(C)CC=C(c2nc(C3CC(C)(C)OC(C)(C)C3)ccc2NC(=O)c2nc(C#N)c[nH]2)CC1` [JNJ-40346527], in assay [2], the “effect on tau phosphorylation and aggregation” value was “inhibit tau phosphorylation and aggregation”.

A word on the IC50: it is the concentration that inhibits the measured activity by half. As usually defined, the inhibition is the relative decrease from the control value, in per cent. A lower inhibition goes with a weak effect. Consider `COc1ccc(COc2ncc(Cc3ccnc(-c4cnn(C)c4)n3)cc2OC)nc1` [Example 1, 4-({5-Methoxy-6-[(5-methoxypyridin-2-yl)methoxy]pyridin-3-yl}methyl)-2-(1-methyl-1H-pyrazol-4-yl)pyrimidine], for which, at human PDGFRβ, the IC50 was above 20 µM. For the same compound, the inhibition at 2 µM amounted to 99.4% against KIT; 99.5% on KIT V559D; 96.4% on KIT L576P; 84% at KIT V559D V654A; 90.8% on PDGFRB. Moreover, in the assay on 468-kinase panel, the “number of kinases showing less than 35% control activity (or >65% inhibition)” value is 3 kinases.
